According to patent US5409898A, “Compositions and methods for treating infections caused by organisms sensitive to β-lactam antibiotics” (priority 1994, dated 1995):
Like-named read-outs stand apart in the source and are kept apart here. Non-standard residues stand in square brackets, D forms with d. Residues, ends and D or L forms follow the SMILES beside them. No end group written: not given here. Orn = NCCC[C@H](N)C(=O)O

Experiments:
human red blood cells = assay: Hemolysis assay; format: cell-based
E. coli ATCC 25922 = assay: Serum bactericidal assay in 40% pooled normal human serum (magainin 2 with antibiotics); format: cell-based, Escherichia coli; settings: for synergy of antibiotic with magainin 2: 1/32, 1/16, 1/8 MIC antibiotic, 200 μg/ml magainin 2, 40% pooled normal human serum
E. coli H16 [1] = assay: In vivo protection of neutropenic mice from lethal E. coli H16 infection (magainin 2, C-13 peptide, cefepime, amikacin); settings: magainin 2 two injections 1 mg/mouse; amikacin two injections of 3 mg/kg
Description: The ability of magainin and cefepime combinations to protect mice from a lethal infection of E. coli was examined. Mice were made neutropenic by injection of Cytoxan and then challenged with E. coli. Mice were then divided into four different groups: (1) mice that were given no further treatment; (2) were given magainin 2 or C-13 peptide only; (3) were given cefepime only and (4) were given a combination of magainin 2 or C-13 peptide and cefepime. […] When amikacin, an aminoglycoside, was tested in similar experiments, no in vitro bactericidal activity or in vivo protection was found.
Mice were made neutropenic five days prior to bacterial challenge. Neutropenia was induced by subcutaneous injection of 250 mg/kg Cytoxan (cyclophosphamide). The mice were challenged with 2×10^4 E. coli H16. Challenge was by intraperitoneal injection. […] The survival of the mice was monitored for a period of at least 10 days

E. coli H16 [2] = assay: In vivo protection of neutropenic mice from systemic E. coli H16 infection (C-13 peptide analogs)
Source text: The ability of C-13 peptide analogs and cefepime combinations to protect mice from a lethal infection of E. coil was examined. Mice were made neutropenic by an injection of cyclophosphamide and then challenged with E. coli. Mice were then divided into four groups: (1) mice that were given PBS; (2) were given C-13 peptide analogs only; (3) were given cefepime only; and (4) were given a combination of C-13 peptide analogs and cefepime.
Male CrL:CF1 mice were made neutropenic five days prior to bacterial challenge. Neutropenia was induced by subcutaneous injection of 250 mg/kg Cytoxan (cyclophosphamide). The mice were challenged with either 2×10^4 E. coli H16 (Table 4) or 5×10^4 A645AP by intraperitoneal injection. Mice were divided into four treatment groups: (1) PBS; (2) C-13 peptide analog (15 mg/kg); (3) cefepime (0.1 mg/kg); (4) a combination treatment of cefepime and C-13 peptide analog (0.1 mg/kg cefepime and 15 mg/kg C-13 peptide analog) that were combined prior to injection. All injections were made in PBS (0.2 ml) and were administered intramuscularly with each injection in separate legs, one and 3.5 hours after bacterial challenge. The survival of the mice was monitored for ten days and the results analyzed by the Fisher Exact test.

[3] = tested on: E. COLI A645 (ATCC 25922); assay: In vitro bactericidal activity (ID50) of cationic oligopeptides, serum bactericidal assay; format: cell-based, Escherichia coli
Description: Cells were diluted without washing to 5×10^4 cells/ml gelatin-veronel buffer (GBV++) and 0.05 ml was added to serum (see section 7.1.3.) in a 1.5 ml Eppendorf vial. For those bacterial cells pregrown in cefepime, the same amount of cefepime that was present during growth was added for both the preparation and examination of bactericidal activity. […] Peptides were diluted in deionized water to make a stock solution of 2 mg/ml and added to the reaction vial to give the appropriate concentration. The total reaction volume was 0.25 ml.

[4] = tested on: endothelial cell proliferation; settings: Maione et al., 1990; cited from earlier work
[5] = neutropenic mice, 2×10^4 E. coli H16 i.p., peptide 15 mg/kg, cefepime 0.1 mg/kg i.m. at one and 3.5 hours, ten days

## ALYKKIIKKLLESAKKLG [analog H, Ala--Leu--Tyr--Lys--Lys--Ile--Ile--Lys--Lys--Leu--Leu--Glu--Ser--Ala--Lys--Lys--Leu--Gly]
Human red blood cells
  RBC LYSIS (%) (100 μG/ML): 1.5%

## ALYRRLLRRLLRSARRLG [analog HH, Ala--Leu--Tyr--Arg--Arg--Leu--Leu--Arg--Arg--Leu--Leu--Arg--Ser--Ala--Arg--Arg--Leu--Gly]
Human red blood cells
  RBC LYSIS (%) (100 μG/ML): 3%

## O=C(O)c1cn(C2CC2)c2cc(N3CCNCC3)c(F)cc2c1=O [ciprofloxacin]
E. coli ATCC 25922
  synergy of antibiotic with magainin 2: neither Amikacin, an aminoglycoside and ciproflaxacin, a quinoline were synergistic

## CC(C)(O/N=C(\C(=O)N[C@@H]1C(=O)N2C(C(=O)[O-])=C(C[n+]3ccccc3)CS[C@H]12)c1csc(N)n1)C(=O)O [ceftazidime]
E. coli ATCC 25922
  synergy of antibiotic with magainin 2: synergistic

## KWKLYKKLLKKLLKSAKKLG [analog N, Lys--Trp--Lys--Leu--Tyr--Lys--Lys--Leu--Leu--Lys--Lys--Leu--Leu--Lys--Ser--Ala--Lys--Lys--Leu--Gly]
Human red blood cells
  RBC LYSIS (%) (100 μG/ML): 7.5%

## AKKLAKLYKKLLKKLLKSAKKLG [analog J, Ala--Lys--Lys--Leu--Ala--Lys--Leu--Tyr--Lys--Lys--Leu--Leu--Lys--Lys--Leu--Leu--Lys--Ser--Ala--Lys--Lys--Leu--Gly]
Human red blood cells
  RBC LYSIS (%) (100 μG/ML): 2.5%
  change in the amount of RBC lysis: increased the amount of RBC lysis

## ALYKKLLKKLLKKAKKLG [analog KK, Ala--Leu--Tyr--Lys--Lys--Leu--Leu--Lys--Lys--Leu--Leu--Lys--Lys--Ala--Lys--Lys--Leu--Gly]
Human red blood cells
  RBC LYSIS (%) (100 μG/ML): < 1%

## NCC[C@H](O)C(=O)N[C@@H]1C[C@H](N)[C@@H](O[C@H]2O[C@H](CN)[C@@H](O)[C@H](O)[C@H]2O)[C@H](O)[C@H]1O[C@H]1O[C@H](CO)[C@@H](O)[C@H](N)[C@H]1O [amikacin]
E. coli ATCC 25922
  synergy of antibiotic with magainin 2: neither Amikacin, an aminoglycoside and ciproflaxacin, a quinoline were synergistic
E. coli H16 [1]
  mice survived (out of total), amikacin experiment: three out of 10

## MGN 1: magainin 1, 23 amino acid cationic oligopeptide from skin secretions of Xenopus laevis (GIGKFLHSAGKFGKAFVGEIMKS; Magainin-1; UniProt P11006 37-59, looked up)
E. coli ATCC 25922; untreated bacteria, 40% PNHS
  MGN killing of untreated bacteria: blocked the action

## Cecropin
Human red blood cells; 100 μG/ML peptide, 37° C. for 45 minutes
  RBC LYSIS (%) (100 μG/ML): < 1%
E. coli H16 [2]; Fisher Exact test
  protection from systemic E. coli H16 infection: no significant increase in protection
E. coli H16 [2]; [5]
  % Survival: 20%
  Number--Survived/Total: 2/20
[3]; 1/4 MIC cefepime, NHS
  ID50 1/4 MIC CEFEPIME NHS: .25 µg/mL
[3]; 1/4 MIC cefepime, heat inactivated NHS
  ID50 1/4 MIC CEFEPIME HI-NHS: .5 µg/mL
[3]; no cefepime, NHS
  ID50 NO CEFEPIME NHS: 1 µg/mL
[3]; no cefepime, heat inactivated NHS
  ID50 NO CEFEPIME HI-NHS: 1 µg/mL

## ALYKKLLKKLLKSAKKLG [analog G, Ala--Leu--Tyr--Lys--Lys--Leu--Leu--Lys--Lys--Leu--Leu--Lys--Ser--Ala--Lys--Lys--Leu--Gly]
Human red blood cells
  RBC LYSIS (%) (100 μG/ML): < 1%
  change in the amount of RBC lysis: no increase

## ALYKKLLKKLLKFAKKFG [analog P, Ala--Leu--Tyr--Lys--Lys--Leu--Leu--Lys--Lys--Leu--Leu--Lys--Phe--Ala--Lys--Lys--Phe--Gly]
Human red blood cells
  RBC LYSIS (%) (100 μG/ML): 21%

## C-12: human platelet factor-4 peptide, amino acids 58-69 (PLYKKIIKKLLE; UniProt P02776 89-100, looked up, fragment)
[4]
  inhibitory action compared with C-13: less inhibitory

## C[C@H]1[C@H](NC(=O)/C(=N\OC(C)(C)C(=O)O)c2csc(N)n2)C(=O)N1S(=O)(=O)O [aztreonam]
E. coli ATCC 25922
  synergy of antibiotic with magainin 2: synergistic
E. coli H16 [2]; similar experiments with aztreonam
  mice survived (out of total), aztreonam experiment: one out of 20

## ALYKKLLKKLLESAKKLG [analog F, Ala--Leu--Tyr--Lys--Lys--Leu--Leu--Lys--Lys--Leu--Leu--Glu--Ser--Ala--Lys--Lys--Leu--Gly]
Human red blood cells
  RBC LYSIS (%) (100 μG/ML): < 1%

## C-11: human platelet factor-4 peptide, amino acids 58-68 (PLYKKIIKKLL; UniProt P02776 89-99, looked up, fragment)
[4]
  inhibitory action compared with C-13: less inhibitory

## C-10: human platelet factor-4 peptide, amino acids 58-67 (PLYKKIIKKL; UniProt P02776 89-98, looked up, fragment)
[4]
  inhibitory action compared with C-13: Little inhibitory action

## PLYKKIIKKLLES [C-13, Pro--Leu--Tyr--Lys--Lys--Ile--Ile--Lys--Lys--Leu--Leu--Glu--Ser]
Human red blood cells
  RBC LYSIS (%) (100 μG/ML): < 1%

## CC(C)C[C@H](NC(=O)[C@H](C)N)C(=O)N[C@@H](Cc1ccc(O)cc1)C(=O)N[C@@H](CCCN)C(=O)N[C@@H](CCCN)C(=O)N[C@@H](CC(C)C)C(=O)N[C@@H](CC(C)C)C(=O)N[C@@H](CCCN)C(=O)N[C@@H](CCCN)C(=O)N[C@@H](CC(C)C)C(=O)N[C@@H](CC(C)C)C(=O)N[C@@H](CCCN)C(=O)N[C@@H](CO)C(=O)N[C@@H](C)C(=O)N[C@@H](CCCN)C(=O)N[C@@H](CCCN)C(=O)N[C@@H](CC(C)C)C(=O)NCC(=O)O [analog II, Ala--Leu--Tyr--Orn--Orn--Leu--Leu--Orn--Orn--Leu--Leu--Orn--Ser--Ala--Orn--Orn--Leu--Gly] (H-ALY[Orn][Orn]LL[Orn][Orn]LL[Orn]SA[Orn][Orn]LG-OH)
Human red blood cells
  RBC LYSIS (%) (100 μG/ML): < 1%

## C[C@@H](O)[C@H]1C(=O)N2C(C(=O)O)=C(SCCN=CN)C[C@H]12 [imipenem]
E. coli ATCC 25922
  synergy of antibiotic with magainin 2: synergistic

## CC(C)C[C@@H](NC(=O)[C@@H](C)N)C(=O)N[C@H](Cc1ccc(O)cc1)C(=O)N[C@H](CCCCN)C(=O)N[C@H](CCCCN)C(=O)N[C@H](CC(C)C)C(=O)N[C@H](CC(C)C)C(=O)N[C@H](CCCCN)C(=O)N[C@H](CCCCN)C(=O)N[C@H](CC(C)C)C(=O)N[C@H](CC(C)C)C(=O)N[C@H](CCCCN)C(=O)N[C@H](CO)C(=O)N[C@H](C)C(=O)N[C@H](CCCCN)C(=O)N[C@H](CCCCN)C(=O)N[C@H](CC(C)C)C(=O)NCC(=O)O [analog X, dAla--dLeu--dTyr--dLys--dLys--dLeu--dLeu--dLys--dLys--dLeu--dLeu--dLys--dSer--dAla--dLys--dLys--dLeu--Gly] (H-[dA][dL][dY][dK][dK][dL][dL][dK][dK][dL][dL][dK][dS][dA][dK][dK][dL]G-OH)
Human red blood cells
  RBC LYSIS (%) (100 μG/ML): < 1%
